# Literature values, collected in patent publication US20120295320A1, “APPARATUS AND METHOD FOR TREATMENT OF MICROORGANISMS DURING PROPAGATION, CONDITIONING AND FERMENTATION USING STABILIZED CHLORINE DIOXIDE/SODIUM CHLORITE WITH HOPS ACID EXTRACTS” (RESONANT BIOSCIENCES, LLC, priority 2010, published 2012).
# System: Weisella confusa
# Conditions: background statement, fermentation mixture
substance,measurement,value
Virginiamycin,concentration required to inhibit growth of Weisella confusa,over 25 mg/L
